Laboratory results from ChEMBL document CHEMBL3044838, “Phytotoxic activity of quinones and resorcinolic lipid derivatives” (J Agric Food Chem, 2010).
Calls of active or inactive are those of the source. The rule behind the calls is not given here.

What follows are molecules tested on Agrostis stolonifera (assay: Phytotoxic activity against Agrostis stolonifera var. Penncross seedlings assessed as growth inhibition at 0.01 mM).
Assay type: functional, organism-based

Compound | growth inhibition (GI)
C=CC/C=C\C/C=C\CCCCCCCC1=C(O)C(=O)C=C(OC)C1=O | inactive
CCCCCCCCCCCCCCC1=C(O)C(=O)C=C(OC)C1=O | inactive
CCCCCCCCCCC1=C(OC)C(=O)C=C(OC)C1=O | inactive
CCCCCC1=C(O)C(=O)C=C(OC)C1=O | inactive
CCCCCC1=C(OC)C(=O)C=C(OC)C1=O | inactive

These molecules were tested on Lactuca sativa (assay: Phytotoxic activity against Lactuca sativa cv. Iceberg A (lettuce) seedlings assessed as growth inhibition at 0.1 mM).
Assay type: functional, organism-based

Compound | growth inhibition (GI)
CCCCCCCCCCCCCCC1=C(O)C(=O)C=C(OC)C1=O | inactive
CCCCCCCCCCC1=C(OC)C(=O)C=C(OC)C1=O | inactive
CCCCCC1=C(O)C(=O)C=C(OC)C1=O | inactive
CCCCCC1=C(OC)C(=O)C=C(OC)C1=O | inactive

The molecules below were run on Agrostis stolonifera (assay: Phytotoxic activity against Agrostis stolonifera var. Penncross seedlings assessed as growth inhibition at 0.3 mM).
Assay type: functional, organism-based

Compound | growth inhibition (GI)
C=CC/C=C\C/C=C\CCCCCCCC1=C(O)C(=O)C=C(OC)C1=O | inactive
CCCCCCCCCCCCCCC1=C(O)C(=O)C=C(OC)C1=O | inactive
CCCCCCCCCCC1=C(OC)C(=O)C=C(OC)C1=O | inactive

The molecules below were run on Lactuca sativa (assay: Phytotoxic activity against Lactuca sativa cv. Iceberg A (lettuce) seedlings assessed as growth inhibition at 0.01 mM).
Assay type: functional, organism-based

Compound | growth inhibition (GI)
C=CC/C=C\C/C=C\CCCCCCCC1=C(O)C(=O)C=C(OC)C1=O | inactive
CCCCCCCCCCCCCCC1=C(O)C(=O)C=C(OC)C1=O | inactive
CCCCCCCCCCC1=C(OC)C(=O)C=C(OC)C1=O | inactive
CCCCCC1=C(O)C(=O)C=C(OC)C1=O | inactive
CCCCCC1=C(OC)C(=O)C=C(OC)C1=O | inactive

What follows are molecules tested on Agrostis stolonifera (assay: Phytotoxic activity against Agrostis stolonifera var. Penncross seedlings assessed as growth inhibition at 1 mM).
Assay type: functional, organism-based

Compound | growth inhibition (GI)
C=CC/C=C\C/C=C\CCCCCCCC1=C(O)C(=O)C=C(OC)C1=O | inactive
CCCCCCCCCCCCCCC1=C(O)C(=O)C=C(OC)C1=O | inactive

These molecules were tested on Agrostis stolonifera (assay: Phytotoxic activity against Agrostis stolonifera var. Penncross seedlings assessed as growth inhibition at 0.03 mM).
Assay type: functional, organism-based

Compound | growth inhibition (GI)
C=CC/C=C\C/C=C\CCCCCCCC1=C(O)C(=O)C=C(OC)C1=O | inactive
CCCCCCCCCCCCCCC1=C(O)C(=O)C=C(OC)C1=O | inactive
CCCCCCCCCCC1=C(OC)C(=O)C=C(OC)C1=O | inactive
CCCCCC1=C(O)C(=O)C=C(OC)C1=O | inactive
CCCCCC1=C(OC)C(=O)C=C(OC)C1=O | inactive

These molecules were tested on Lactuca sativa (assay: Phytotoxic activity against Lactuca sativa cv. Iceberg A (lettuce) seedlings assessed as growth inhibition at 1 mM).
Assay type: functional, organism-based

Compound | growth inhibition (GI)
CCCCCC1=C(O)C(=O)C=C(OC)C1=O | Active

What follows are molecules tested on Lactuca sativa (assay: Phytotoxic activity against Lactuca sativa cv. Iceberg A (lettuce) seedlings assessed as growth inhibition at 0.03 mM).
Assay type: functional, organism-based

Compound | growth inhibition (GI)
C=CC/C=C\C/C=C\CCCCCCCC1=C(O)C(=O)C=C(OC)C1=O | inactive
CCCCCCCCCCCCCCC1=C(O)C(=O)C=C(OC)C1=O | inactive
CCCCCCCCCCC1=C(OC)C(=O)C=C(OC)C1=O | inactive
CCCCCC1=C(O)C(=O)C=C(OC)C1=O | inactive
CCCCCC1=C(OC)C(=O)C=C(OC)C1=O | inactive

These molecules were tested on Agrostis stolonifera (assay: Phytotoxic activity against Agrostis stolonifera var. Penncross seedlings assessed as growth inhibition at 0.1 mM).
Assay type: functional, organism-based

Compound | growth inhibition (GI)
C=CC/C=C\C/C=C\CCCCCCCC1=C(O)C(=O)C=C(OC)C1=O | inactive
CCCCCCCCCCCCCCC1=C(O)C(=O)C=C(OC)C1=O | inactive
CCCCCCCCCCC1=C(OC)C(=O)C=C(OC)C1=O | inactive

What follows are molecules tested on Lactuca sativa (assay: Phytotoxic activity against Lactuca sativa cv. Iceberg A (lettuce) seedlings assessed as growth inhibition at 0.3 mM).
Assay type: functional, organism-based

Compound | growth inhibition (GI)
CCCCCCCCCCC1=C(OC)C(=O)C=C(OC)C1=O | inactive
